In patent US10010560B2, “Small molecule HSP70 inhibitors” (THE TRUSTEES OF THE UNIVERSITY OF PENNSYLVANIA, priority 2014, dated 2018):

Test system: cathepsin L
Experiment: Western blot of cathepsin L processing
Assay type: cell-based
Conditions: 24 h treatment
Description: FIGS. 4A-4L illustrate that PET-16 impairs proteostasis. […] There is a general absence of obvious nuclei in PET-16 treated tumor cells. […] FIGS. 4D and 4E are gels of whole-cell extracts (WCE) prepared from human melanoma A875 (D) or 451 Lu (E) cells treated with DMSO, PES or PET-16 that were immunoprecipitated using an anti-HSP70 antibody. The excised band of about 70 kDa shown in the Coomassie gel is HSP70, as confirmed by liquid chromatography—tandem mass spectrometry analysis. FIGS. 4F-4I are western blots of cell lines were treated with DMSO, PES or PET-16 for 24 h and immunoblotted for the indicated proteins. FIG. 4J are western blots of indicated melanomas pretreated with DMSO, PES or PET-16, followed by treatment with IL-6. Cell extracts were immunoblotted for the proteins indicated. Inhibition of IL-6 induced STAT3 and STAT1 phosphorylation by PET-16. FIG. 4K is a western blot analysis indicating altered processing of cathepsin L from the larger precursor form to the smaller mature form in the indicated cells following PET-16 treatment for 24 h. FIG. 4L is a western blot of the human melanoma 451 Lu cells treated with DMSO, PES or PET-16 for 24 h. Cells were harvested in 1% NP40-containing lysis buffer, fractionated into detergent-soluble and detergent-insoluble preparations, and assayed by western blot for ubiquitin. […]

C(#C[P+](c1ccccc1)(c1ccccc1)c1ccccc1)c1ccccc1.[Br-] [PET-16, triphenyl(phenylethynyl)phosphonium bromide]
cathepsin L processing: accumulation of the precursor procathepsin L and a markedly reduced abundance of the smaller, mature form
